# According to patent US20230310388A1, “Methods and Compositions for Treating Fungal Infections” (Neoculi Pty Ltd, priority 2020, published 2023):
# Values joined by “and” are separate entries in the source; they are usually repeats but may differ in a detail not shown here. Equal values may be shown once. Read-outs that look alike come from different tables or passages of the source.
# Experiments:
# [1] = system: Candida albicans; experiment: CLSI broth microdilution MIC (Example 6); format: cell-based
# How it was run: (§1)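 CLSI broth microdilution in RPMI 1640, compounds serially double-diluted, inoculum about 2×10^3 cells/mL. Incubation at 35° C for 24-48 hours. MICs determined per isolate in duplicate, with a third repeat if values differed.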
# [2] = system: Cryptococcus neoformans; experiment: CLSI broth microdilution MIC (Example 6); format: cell-based
# How it was run: as §1
# [3] = system: Candida albicans; experiment: CLSI broth microdilution MIC (Example 3); format: cell-based
# How it was run: (§2)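 CLSI broth microdilution in RPMI 1640 with 2-fold compound dilutions and an inoculum of about 2×10^3 cells/mL. Plates incubated at 35° C. for 24-48 hours and read at 600 nm. MIC determined in duplicate per isolate, with a third repeat if values differed.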
# [4] = system: Candida parapsilosis; experiment: CLSI broth microdilution MIC (Example 3); format: cell-based; conditions: Candida parapsilosis ATCC 22019
# How it was run: as §2
# [5] = system: Cryptococcus neoformans; experiment: CLSI broth microdilution MIC (Example 5); format: cell-based
# How it was run: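 Broth microdilution per CLSI in RPMI 1640 with twofold compound dilutions, inoculum about 2×10^3 cells/mL. Plates incubated at 35° C for 24-48 hours. MIC determined per isolate in duplicate, with a third repeat when the two values differed.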
# [6] = system: Candida albicans ATCC14053; experiment: Broth micro-dilution screen at 16 μg/mL and MIC (Example 9); format: cell-based; conditions: for MIC: C. albicans ATCC14053, test range 0.25-64 μg/mL, duplicate; for Screen at 16 μg/mL: single concentration 16 μg/mL, Growth or No growth of C. albicans ATCC14053
# Description: The antifungal activity of 201 NCL analogs against Candida albicans ATCC14053 in vitro was investigated. A broth micro-dilution method was used, according to CLSI guidelines as described. NCL analogs were dissolved in DMSO and originally screened at a single concentration of 16 μg/mL.
# [7] = system: C. gattii; experiment: CLSI broth microdilution MIC (Example 6); format: cell-based, Cryptococcus gattii
# How it was run: as §1
# [8] = system: Candida albicans; experiment: CLSI broth microdilution MIC (Example 4); format: cell-based; conditions: for antifungal activity against the two isolates of Candida albicans: summary in words
# How it was run: (§3)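 CLSI broth microdilution in RPMI 1640 with two-fold compound dilutions and inoculum about 2×10^3 cells/mL. Plates incubated 35° C for 24-48 hours; MICs determined in duplicate, with a third test when the duplicates differed.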
# [9] = system: Cryptococcus neoformans; experiment: CLSI broth microdilution MIC (Example 4); format: cell-based
# How it was run: as §3
# [10] = Example 6 isolates, summary in words
# [11] = human clinical isolate C. gattii 16-90050373
# [12] = human clinical isolate C. gattii 17-90028211
compound,measurement,setting,value
Cc1ccc(/C=N/Nc2cc(N/N=C/c3ccc(C)cc3)nc(N)n2)cc1 [NCL195],MIC,[1]; C. albicans SA3,2 µg/mL
same,MIC,[1]; Candida albicans ATCC 90028,2 µg/mL
same,MIC,[2]; Cryptococcus neoformans SA1,2 µg/mL
same,MIC,[2]; Cryptococcus neoformans SA2,2 µg/mL
same,activity against all isolates,[2]; [10],active
same,relative potency among tested compounds,[2]; [10],most potent activity
same,MIC,[2]; human clinical isolate C. neoformans serotype A/D hybrid,2 µg/mL
same,MIC,[2]; human clinical isolate C. neoformans var grubii 16-90050434,2 µg/mL
same,MIC,[2]; human clinical isolate C. neoformans var grubii 17-90028233,2 µg/mL
same,MIC,[2]; human clinical isolate C. neoformans var grubii 17-93996464,2 µg/mL
same,MIC,[2]; human clinical isolate C. neoformans var grubii 17-93996964,2 µg/mL
same,MIC,"[3]; Candida albicans ATCC 90028, 1st",2 µg/mL
same,MIC,"[3]; Candida albicans ATCC 90028, 2nd",2 µg/mL
same,MIC,"[3]; Candida albicans, 1st",2 µg/mL
same,MIC,"[3]; Candida albicans, 2nd",2 µg/mL
same,MIC,[4]; 1st,1 µg/mL
same,MIC,[4]; 2nd,2 µg/mL
same,MIC,[5]; Cryptococcus neoformans SA1,2 µg/mL
same,MIC,[5]; Cryptococcus neoformans SA2,2 µg/mL
same,MIC,[6],1 µg/mL and 2 µg/mL
same,Screen at 16 μg/mL,[6],No growth
same,MIC,[7]; human clinical isolate C. gatti 17-90232099,2 µg/mL
same,MIC,[7]; [11],2 µg/mL
same,MIC,[7]; [12],2 µg/mL
same,MIC,[7]; human clinical isolate C. gattii 17-90028217,2 µg/mL
same,MIC,[7]; human clinical isolate C. gattii 17-90028242,2 µg/mL
same,MIC at 24-48 hours,[8]; Candida albicans ATCC 90028,2 µg/mL
same,MIC at 24-48 hours,[8]; Candida albicans SA3,2 µg/mL
same,antifungal activity against the two isolates of Candida albicans,[8],high antifungal activity
same,MIC at 24-48 hours,[9]; Cryptococcus neoformans SA1,2 µg/mL
same,MIC at 24-48 hours,[9]; Cryptococcus neoformans SA2,2 µg/mL
"N=C(N/N=C/c1ccc(Cl)cc1)N/N=C/c1ccc(Cl)cc1 [NCL812, robenidine, reference compound]",MIC,"[1]; ATCC90028, Candida albicans ATCC 90028, read-out: MIC",2 µg/mL
same,MIC,"[1]; Candida albicans, C. albicans SA3, read-out: MIC",2 µg/mL
same,MIC,"[2]; Cryptococcus neoformans, Cryptococcus neoformans SA1, read-out: MIC",2 µg/mL
same,MIC,"[2]; Cryptococcus neoformans, Cryptococcus neoformans SA2, read-out: MIC",2 µg/mL
same,MIC,"[2]; Cryptococcus neoformans, human clinical isolate C. neoformans serotype A/D hybrid, read-out: MIC",16 µg/mL
same,MIC,"[2]; Cryptococcus neoformans, human clinical isolate C. neoformans var grubii 16-90050434, read-out: MIC",32 µg/mL
same,MIC,"[2]; Cryptococcus neoformans, human clinical isolate C. neoformans var grubii 17-90028233, read-out: MIC",32 µg/mL
same,MIC,"[2]; Cryptococcus neoformans, human clinical isolate C. neoformans var grubii 17-93996464, read-out: MIC",16 µg/mL
same,activity against all isolates,[2]; [10],active
same,activity against one or more isolates of Candida albicans and Cryptococcus neoformans,[2]; summary in words,highly active
same,MIC,"[3]; Candida albicans, ATCC90028, Candida albicans ATCC 90028, 1st, read-out: MIC",0.25 µg/mL
same,MIC,"[3]; Candida albicans, ATCC90028, Candida albicans ATCC 90028, 2nd, read-out: MIC",0.5 µg/mL
same,MIC,"[3]; Candida albicans, two Candida albicans and one Candida parapsilosis isolates, summary range, read-out: MIC",0.5 to 8 µg/mL
same,MIC,"[3]; Candida albicans, 1st, read-out: MIC",0.5 µg/mL
same,MIC,"[3]; Candida albicans, 2nd, read-out: MIC",1 µg/mL
same,MIC,[4]; 2nd,0.5 µg/mL
same,MIC,"[4]; Lodderomyces parapsilosis, ATCC22019, 1st, read-out: MIC",0.5 µg/mL
same,MIC,"[5]; Cryptococcus neoformans SA1, read-out: MIC",2 µg/mL
same,MIC,[5]; Cryptococcus neoformans SA2,2 µg/mL
same,activity against Candida albicans at the low discriminating concentration,"[6]; 16 μg/mL screen, summary in words",high activity
same,MIC,"[6]; Candida albicans, read-out: MIC",0.5 µg/mL
same,Screen at 16 μg/mL,[6],No growth
same,MIC,"[7]; Cryptococcus gattii, human clinical isolate C. gattii 17-90028217, read-out: MIC",16 µg/mL
same,MIC,[7]; [11],16 µg/mL
same,MIC,[7]; [12],16 µg/mL
same,MIC,"[8]; ATCC90028, read-out: MIC at 24-48 hours, Candida albicans ATCC 90028",2 µg/mL
same,MIC,"[8]; read-out: MIC at 24-48 hours, Candida albicans SA3",2 µg/mL
same,antifungal activity against the two isolates of Candida albicans,[8],high antifungal activity
same,MIC at 24-48 hours,[9]; Cryptococcus neoformans SA2,2 µg/mL
same,MIC,"[9]; read-out: MIC at 24-48 hours, Cryptococcus neoformans SA1",2 µg/mL
same,MIC,"[9]; two isolates of Cryptococcus neoformans, summary range, read-out: MICs",1 to 16 µg/mL
